pIC50, pKi: −log10 of the molar value. Structures can show the parent of a compound that is named as a salt. Where two headings read alike, the source gives them in different places.
What was measured:
h-5HT1A = biological target: T1, h-5HT1A (Homo sapiens, UniProt P08908); assay: 5HT1A receptor SPA binding assay, [3H]-OH DPAT, CHO cell membranes; conditions: [3H]-OH DPAT 3 nM
T1 construct: expressed in transfected cells; host or cells: CHO cells grown in suspension in a 10 liter bioreactor
T1 sequence (P08908 1-422): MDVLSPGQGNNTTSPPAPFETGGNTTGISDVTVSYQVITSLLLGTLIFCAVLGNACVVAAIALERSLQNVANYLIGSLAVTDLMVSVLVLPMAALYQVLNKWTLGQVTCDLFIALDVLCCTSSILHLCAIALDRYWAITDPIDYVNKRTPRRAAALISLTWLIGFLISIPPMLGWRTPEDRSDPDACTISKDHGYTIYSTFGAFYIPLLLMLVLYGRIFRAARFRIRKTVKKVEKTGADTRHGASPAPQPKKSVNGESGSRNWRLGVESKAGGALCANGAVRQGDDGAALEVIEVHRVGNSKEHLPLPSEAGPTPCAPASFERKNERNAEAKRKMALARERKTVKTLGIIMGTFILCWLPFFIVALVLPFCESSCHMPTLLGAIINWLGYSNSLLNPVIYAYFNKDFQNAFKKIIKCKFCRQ
Protocol: Determination of the Inhibitory Activity of Compounds at the Serotonin 5HT1A Receptor Subtype using Scintillation Proximity Assay (SPA) Technology
Cells: CHO cells expressing the serotonin 5HT1A receptor subtype were grown in suspension in 10 liter bioreactor and supplied as a wet cell pellet
Binding experiments are performed in a total volume of 200 μl using a 96 well microtiter plate format (Packard Optiplate). On the day of the assay, the membranes are thawed and resuspended with enough 50 mM Tris (HCI) pH 7.5, 10 mM MgCl2, 0.2 mM EDTA, 10 μM pargyline, and 0.1% ascorbate (assay buffer) to achieve a protein concentration of 800 μg/ml. To each well of the microtiter plate, 20 μl of 10× test compound in water containing 3.3% DMSO, 3 nM of [3H]-OH DPAT (Amersham, SA: 200 Ci/mmol), 80 μg cell membrane and assay buffer are combined to achieve a volume of 150 μl. Assay buffer and 10 μM cold 5-HT are substituted for the test compound in separate wells to define ‘total’ and ‘nonspecific’ bindings, respectively. The incubation period is initiated by the addition of 50 μl of 10 mg/ml PVT WGA SPA beads (RPNQ0060, Amersham GE Healthcare) resuspended in assay buffer for a final concentration of 0.5 mg/well. The plates are sealed and gently shaken at room temperature using an orbital shaker (setting 1.5) until equilibrium is achieved (2 h-overnight incubation). Radioactivity (CPM) is measured by Packard TopCount (1 min counting time/well).
Specific binding is described as the total radioactivity bound less the amount bound in the presence of 10 μM 5HT, referred to as non-specific binding (NSB). Binding in the presence of varying concentrations of test compounds is expressed as percent of specific binding in the absence of compound.
{(Bound−NSB)/(Total−NSB)}×100=% Total
Regression analysis of % bound data from ten concentrations is performed in GraphPad Prism, XL Fit or equivalent software. IC50 values are calculated using a four-parameter logistic curve fitting model and Ki values are calculated by the Cheng-Prusoff equation below: […]
where L is the nM concentration of the radioactive ligand used and the Kd is the dissociation constant of the ligand for the receptor. The Kd for [3H-OH DPAT in the SPA binding format is 3 nM. • Single dose
Percent inhibition: The displacement of […] by the test compound at h5-HT1A as determined by: [(Total DPM−compound DPM)/(Total DPM−NSB DPM)]×100. • Conc.: concentration of test compound; NBS: non-specific binding; DPM: disintegrations per min

[1] = biological target: T2, Human Serotonin Transporter (h5HT-T) (Homo sapiens, UniProt P31645); conditions: read-out: human SERT SPA binding assay Ki
T2 sequence (P31645 whole entry): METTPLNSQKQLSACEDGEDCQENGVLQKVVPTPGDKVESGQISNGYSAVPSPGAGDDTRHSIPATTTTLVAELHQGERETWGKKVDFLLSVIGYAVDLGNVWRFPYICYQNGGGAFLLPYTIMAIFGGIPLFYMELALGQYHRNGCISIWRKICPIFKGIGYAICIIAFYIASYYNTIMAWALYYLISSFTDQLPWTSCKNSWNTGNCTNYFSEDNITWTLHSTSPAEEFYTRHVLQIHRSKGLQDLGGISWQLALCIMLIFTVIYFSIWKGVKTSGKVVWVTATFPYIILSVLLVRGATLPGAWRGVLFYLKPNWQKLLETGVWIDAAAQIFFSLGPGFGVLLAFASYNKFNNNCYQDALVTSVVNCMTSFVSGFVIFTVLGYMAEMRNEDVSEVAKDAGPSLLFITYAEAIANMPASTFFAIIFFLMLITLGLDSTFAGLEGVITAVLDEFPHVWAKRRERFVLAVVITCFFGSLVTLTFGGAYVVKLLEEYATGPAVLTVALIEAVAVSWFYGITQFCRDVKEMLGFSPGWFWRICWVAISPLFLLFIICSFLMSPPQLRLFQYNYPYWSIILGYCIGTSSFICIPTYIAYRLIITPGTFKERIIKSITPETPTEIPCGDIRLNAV
Protocol: (§1) MEDIA REAGENTS: Dulbecco's Modified Eagle Medium (DMEM) with High Glucose, L-Glutamine, 110 mg/L Sodium Pyruvate, Pyridoxine Hydrochloride containing: • a) 10% Fetal Bovine Serum, Heat-inactivated and Dialyzed (10,000 Mol Wt.) • b) 1% Pennicilin-streptomycin • c) 100 μg/ml Geneticin/G418 • 2. […] Immediately add 15 ml Cell Culture medium to inactivate trypsin and mix well. […] (eg. 1×T175 flask can seed 20×T175 flasks) • g) Incubate cells at 37° C., 5% CO2, in a humidified incubator. NOTE: Cells will grow to confluence within 3-4 days.
(§2) Cells are resuspended in 3 volumes of 50 mM Tris-HC1 (pH 7.4) to 1 volume of initial cell fraction • 2. Partially homogenize cells by swirling or by using transfer pipetor to make cell solution more homogenous and aliquot solution into 4 clear 50 ml polypropylene centrifuge tubes • 3. Tubes are balanced and spun down at 2,000 rpm for 10 minutes at 4° C. using the HS-4 rotor (rotor code 8) • 4. Supernatant is decanted and pellets resuspend in an additional 75 ml of 50 mM Tris-HCl (pH 7.4)→˜18 ml Tris to each of 4 tubes • 5. Spin cells again at 5, 000 rpm for minutes at 4° C. using the HS-4 rotor and decant supernatant • 6. Resuspend final pellts in appropriate volume of 50 nM Tris to yield protein concentration of ˜6 mg/ml • add 100 ml Tris to original cell suspension of 35 ml • add ˜72 ml; Tris to original cell suspension of 25 ml • 7. Add the appropriate final volume and split the cells into two/three 50 ml Falcon polypropylene tubes. Thoroughly vortex your cell suspension in these tubes to ensure homogeneity before aliquoting. • 8. Pool the samples from the 50 nl tubes into one larger flat-bottom vessel and stir constantly on ice (4° C.). • 9. While stirring, aliquot 1 ml portions out into 1.5 ml cryogenic vials. • 10. Store vials at −70° C. until subsequtn asay. Retain one aliquot for protein concentration, Kd and Bmax determination before starting experiments using new batch of cells. Proetin concentration is determined using the Lowry method.
(§3) Required buffers: • Assay buffer; 50 mM Tris HCl, 120 mM NaCl and 5 mM KCl, pH 7.4 • 2. Binding protocol: Preliminary screening assays are performed using single replicates on duplicate plates. Dose-response binding assays are performed in a single replicates on duplicate OptiPlates (Perkin Elmer) using 0.1 nM to 3 μM of test drug.
(§4) a) To each well add 10 μL of test compound, blank compound (10 μM Fluoxetine), or assay buffer (50 mM Tris HCl, 120 mM NaCl and 5 mM KCl, pH 7.4. Each well is then supplemented with 40 μL of assay buffer.
(§5) The isotope solution is also disuted in 50 mM Tris HCl, 120 mM NaCl and 5 mM KCl, pH 7.4 • c) Resuspend membrane pellet in binding buffer to achieve a solution containing 5 μg of protein in 50 μL. This will yield a final protein concentration of 5 μg/well. • d) To each well add 0.5 mg of Wheatgerm Agglutinin (WGA) SPA beads in 50 μl of 50 mM Tris HCl, 120 mM NaCl and 5 mM KCl, pH 7.4 • e) Incubate plates, while gently shaking, for at least 1 hour so as to reach equilibrium. Plates can still be read if left to incubate overnight without loss of signal. • f) Count plates on TopCount.
(§6) 3H-Citallopram binding is expressed as percent of specific binding, with IC50 and Ki VALUES DETERMINED BY nonlinear regression analysis using the Activity Base software package. Specific binding is defined as total binding observed in the presence of 10 μM fluoxetine.

serotonin transporter = biological target: T3, serotonin transporter (Rattus norvegicus, UniProt P31652); assay: Displacement of 3H-paroxetine from male rat frontal cortical membranes (serotonin transporter affinity); assay type: binding; conditions: 3H-paroxetine displacement, read-out: 5-HT Transporter Affinity Ki
T3 construct: displace ^3H-paroxetine from male rat frontal cortical membranes; from tissue; host or cells: male rat frontal cortex membranes
T3 sequence (P31652 whole entry): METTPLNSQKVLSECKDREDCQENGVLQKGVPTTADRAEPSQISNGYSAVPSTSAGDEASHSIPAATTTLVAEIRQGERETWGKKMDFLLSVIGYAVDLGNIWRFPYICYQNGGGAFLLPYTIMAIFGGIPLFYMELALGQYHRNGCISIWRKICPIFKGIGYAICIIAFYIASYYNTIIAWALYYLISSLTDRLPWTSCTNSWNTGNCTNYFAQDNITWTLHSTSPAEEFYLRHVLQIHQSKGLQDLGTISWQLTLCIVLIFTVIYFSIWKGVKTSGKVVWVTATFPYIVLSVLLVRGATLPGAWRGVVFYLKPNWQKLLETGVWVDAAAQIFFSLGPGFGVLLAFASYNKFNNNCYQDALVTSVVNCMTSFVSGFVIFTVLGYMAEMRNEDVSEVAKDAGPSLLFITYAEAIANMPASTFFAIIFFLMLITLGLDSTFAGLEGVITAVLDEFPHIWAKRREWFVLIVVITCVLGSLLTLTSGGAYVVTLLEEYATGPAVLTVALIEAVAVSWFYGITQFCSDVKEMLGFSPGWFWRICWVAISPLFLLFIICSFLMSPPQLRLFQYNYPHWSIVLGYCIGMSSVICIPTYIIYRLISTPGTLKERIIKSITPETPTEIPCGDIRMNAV
From the text: Affinity of Compounds of the Invention for the Serotonin Transporter

human 5HT1A receptors = biological target: T4, human 5HT1A receptors (Homo sapiens, UniProt P08908); assay: Displacement of [3H] 8-OH-DPAT from 5HT1A receptor, CHO cells stably transfected with human 5HT1A receptors; assay type: binding; conditions: [3H] 8-OH-DPAT displacement, CHO cells with human 5HT1A; read-out: 5HT1A Receptor Affinity Ki
T4 construct: expressed in transfected cells; host or cells: CHO cells
T4 sequence (P08908 1-422): T1 sequence (P08908 1-422)
From the text: High affinity for the serotonin 5HT1A receptor was established by testing the claimed compound's ability to displace [^3H] 8-OH-DPAT (dipropylamino-tetralin) from the 5HT1A serotonin receptor following a modification of the procedure of Hall et al., J. Neurochem. 44, 1685 (1985) which utilizes CHO cells stably transfected with human 5HT1A receptors.

[2] = biological target: T5, cloned human 5HT1A receptors (Homo sapiens, UniProt P08908); assay: 35S-GTPγS binding assay, agonist/antagonist activity at 5HT1A receptors; assay type: biochemical
T5 construct: expressed in transfected cells
T5 sequence (P08908 1-422): T1 sequence (P08908 1-422)
Protocol: Determination of […] or Antagonist Activity at 5HT1A Receptors
Antagonist or antagonist activity at 5HT1A receptors was established by using a ^35S-GTPγS binding assay similar to that used by Lazareno and Birdsall (Br. J. Pharmacol. 109: 1120, 1993), in which the test compound's ability to affect the binding of ^35S-GTPγS to membranes containing cloned human 5HT1A receptors was determined. Agonists produce an increase in binding whereas antagonists produce no increase but rather reverse the effects of the standard agonist 8-OH-DPAT. The test compound's maximum inhibitory effect is represented as the Imax, while its potency is defined by the IC50. The results of the three standard experimental test procedures described in the preceding three paragraphs were as follows: […]

[3] = biological target: T2, Human Serotonin Transporter (h5HT-T); assay: biochemical
Protocol: as §1, §2, §3, §4, §5, §6

pKi (h-5HT1A)	pKi (serotonin transporter)	pKi (human 5HT1A receptors)	pKi [3]	Compound	further results
–	8.02	9.59	–	Cc1ccc2c3c(ccc2n1)OC[C@H](CN1CCC(Oc2ccc4c(c2)NC(=O)CO4)CC1)O3 [Example 1, 6-[(1-{[(2S)-8-methyl-2,3-dihydro[1,4]dioxino[2,3-f]quinolin-2-yl]methyl}piperidin-4-yl)oxy]-2H-1,4-benzoxazin-3(4H)-one dihydrochloride salt]	pIC50 ([2]; reversal of 8-OH-DPAT effect, read-out: 5HT1A Function IC50): 7.23; 5HT1A Function Imax (maximum inhibitory effect) ([2]; value in parentheses): 97
–	7.86	9.20	–	Cc1ccc2c3c(ccc2n1)OC[C@H](CN1CCC(CCc2ccc4c(c2)N(C)C(=O)CO4)CC1)O3 [Example 13, 4-Methyl-6-[2-(1-{[(2S)-8-methyl-2,3-dihydro[1,4]dioxino[2,3-f]quinolin-2-yl]methyl}piperidin-4-yl)ethyl]-2H-1,4-benzoxazin-3(4H)-one dihydrochloride salt]	–
–	8.58	9.23	–	Cc1ccc2c3c(ccc2n1)OC[C@H](CN1CCC(CCc2ccc4c(c2)NC(=O)CO4)CC1)O3 [Example 14, 6-[2-(1-{[(2S)-8-Methyl-2,3-dihydro[1,4]dioxino[2,3-f]quinolin-2-yl]methyl}piperidin-4-yl)ethyl]-2H-1,4-benzoxazin-3(4H)-one dihydrochloride salt]	–
–	8.30	9.40	–	Cc1ccc2c3c(ccc2n1)OC[C@H](CN1CCCC(Cc2ccc4c(c2)NC(=O)CO4)C1)O3 (stereo partly drawn) [Example 16, 6-[(1-{[(2S)-8-Methyl-2,3-dihydro[1,4]dioxino[2,3-f]quinolin-2-yl]methyl}piperidin-3-yl)methyl]-2H-1,4-benzoxazin-3(4H)-one dihydrochloride salt]	–
8.94	–	–	8.23	Cc1ccc2c3c(ccc2n1)OC[C@H](CN1CCC(Cc2ccc4c(c2)NC(=O)CC4)CC1)O3 [Example 20, 7-[(1-{[(2S)-8-Methyl-2,3-dihydro[1,4]dioxino[2,3-f]quinolin-2yl]methyl}piperidin-4-yl)methyl]-3,4-dihydroquinolin-2(1H)-one]	–

The next lines start with the compound.

Compound	pKi (h-5HT1A)	pKi (serotonin transporter)	pKi (human 5HT1A receptors)	pKi [3]	further results
8-Fluoro-6-[(1-{[(2S)-8-methyl-2,3-dihydro[1,4]dioxino[2,3-f]quinolin-2-yl]methyl}piperidin-4-yl)methyl]-2H-1,4-benzoxazin-3(4H)-one [Example 21a]	7.81	–	–	–	pKi [1]: 7.17
8-Fluoro-6-[(1-{[(2S)-8-methyl-2,3-dihydro[1,4]dioxino[2,3-f]quinolin-2-yl]methyl}piperidin-4-yl)methyl]-2H-1,4-benzoxazin-3(4H)-one [Example 21b]	8.95	–	–	–	pKi [1]: 8.76
Cc1ccc2c3c(ccc2n1)OC[C@H](CN1CCCC(Cc2ccc4c(c2)N(C)C(=O)CO4)C1)O3 (stereo partly drawn) [Example 15, 4-Methyl-6-[(1-{[(2S)-8-methyl-2,3-dihydro[1,4]dioxino[2,3-f]quinolin-2-yl]methyl}piperidin-3-yl)methyl]-2H-1,4-benzoxazin-3(4H)-one dihydrochloride salt]	–	7.09	9.17	–	–
Cc1ccc2c3c(ccc2n1)OC[C@H](CN1CCC(Oc2ccc4c(c2)NC(=O)CC4)CC1)O3 [Example 17, 7-[(1-{[(2S)-8-Methyl-2,3-dihydro[1,4]dioxino[2,3-f]quinolin-2-yl]methyl}piperidin-4-yl)oxy]-3,4-dihydroquinolin-2(1H)-one dihydrochloride salt]	–	7.42	9.55	–	–
Cc1ccc2c3c(ccc2n1)OC[C@H](CNC1CCN(c2ccc4c(c2)NC(=O)CO4)CC1)O3 [Example 18, 6-(4-{[(8-methyl-2,3-dihydro[1,4]dioxino[2,3-f]quinolin-2-yl)methyl]amino}piperidin-1-yl)-2H-1,4-benzoxazin-3(4H)-one dihydrochloride salt]	–	7.45	9.03	–	–
Cc1ccc2c3c(ccc2n1)OC[C@H](CN1C2CCC1CC(Cc1ccc4c(c1)NC(=O)CC4)C2)O3 (stereo partly drawn) [Example 23, 7-[(8-{[(2S)-8-Methyl-2,3-dihydro[1,4]dioxino[2,3-f]quinolin-2-yl]methyl}-8-azabicyclo[3.2.1]oct-3-yl)methyl]-3,4-dihydroquinolin-2(1H)-one]	8.62	–	–	7.91	–
Cc1ccc2c3c(ccc2n1)OC[C@H](CN1CCCC(Cc2ccc4c(c2)NC(=O)CC4)C1)O3 (stereo partly drawn) [Example 24, 7-[(1-{[(2S)-8-Methyl-2,3-dihydro[1,4]dioxino[2,3-f]quinolin-2-yl]methyl}piperidin-3-yl)methyl]-3,4-dihydroquinolin-2(1H)-one]	8.63	–	–	8.01	–
Cc1ccc2c3c(ccc2n1)OC[C@H](CN1CCC[C@@H](Oc2ccc4c(c2)NC(=O)CO4)C1)O3 [Example 25, 6-{[(3R)-1-{[(2S)-8-Methyl-2,3-dihydro[1,4]dioxino[2,3-f]quinolin-2-yl]methyl}piperidin-3-yl]oxy}-2H-1,4-benzoxazin-3(4H)-one]	7.86	–	–	6.83	–
Cc1ccc2c3c(ccc2n1)OC[C@H](CN1CCC[C@H](Oc2ccc4c(c2)NC(=O)CO4)C1)O3 [Example 26, 6-{[(3S)-1-{[(2S)-8-Methyl-2,3-dihydro[1,4]dioxino[2,3-f]quinolin-2-yl]methyl}piperidin-3-yl]oxy}-2H-1,4-benzoxazin-3(4H)-one]	6.44	–	–	6.42	–

— patent US20090042874A1, “ANTIDEPRESSANT HETEROARYL DERIVATIVES OF HETEROCYCLE-FUSED BENZODIOXANS” (WYETH, priority 2007, published 2009)
